One data set deals with HDAC5 (Homo sapiens, UniProt Q9UQL6). Put plainly: HDAC enzyme inhibition assay (Ac-peptide-AMC substrate). The class given is biochemical. The method, then:
HDACs inhibition assay of F7 was performed utilizing 4-amino-7-methylcoumarin (AMC) labeled Ac-peptide (Ac-peptide-AMC) substrates, a service provided by Chempartner Company (Shanghai, China).
This assay was performed was performed utilizing 4-amino-7-methylcoumarin (AMC) labeled Ac-peptide (Ac-peptide-AMC) substrates, a service provided by Chempartner Company (Shanghai, China).

Another data set has as its system HK-2 cells. Put plainly: Western blot of myoglobin-stimulated HK-2 cells. The class given is cell-based, Human. The method, then:
Kidney tissue or cultured cell samples were sufficiently lysed in the mixture of RIPA buffer (50 mM Tris (pH7.4), 150 mM NaCl, 1% TritonX-100, 1% sodium deoxycholate, 0.1% SDS) containing 4% cocktail proteinase inhibitor (Roche, Switzerland) on ice. After centrifuged at 13,000 rpm for 15 min at 4°C, supernate of the homogenate were collected for protein quantification. Protein equivalent to 50 ug were loaded into 10–12% SDS-PAGE gels for electrophoretic separation, and then transferred to polyvinylidene difluoride (PVDF) membranes (0.2 μm, Bio-Rad Laboratories, Inc.). After protein blotting, membranes were blocks using 5% non-fat dried milk for 1h at room temperature, then probed with primary antibodies at 4°C overnight, and incubated with secondary antibodies for 1h at room temperature. […] Immunoblots were visualized with the Immobilon Western Chemiluminescent HRP Substrate (Millipore Corporation, Billerica, MA, United States) and measured with Bio-Rad Chemi Doc MP. […]
A general note: A western blot detects proteins with antibodies after separation by electrophoresis.

The test system of data set [1] is liver, kidney, spleen, heart and lung tissues of mice. Put plainly: Histological examination of organs from normal mice given F7. The class given is in vivo. Particulars: oral F7 40 mg/kg/d for 3 days, without glycerol injection. The method, then: We firstly examined whether the mice model of glycerol-induced AKI was successfully established, and tested the protective effect of F7 at a dose of 40 mg/kg/d for 3 days on renal function and pathological changes. […] We also evaluated the liver, kidney, spleen, heart and lung tissues of mice with oral administration of F7 at the same dose as that in F7+glycerol group for 3 days, but without glycerol injections.
Supplementary file pone.0224158.s002.tif: S2 Fig Histological examinations of different organs from the normal mice administrated with F7. Photomicrographs (×200) illustrated H&E staining of the heart, liver, spleen, lung and kidney tissues from mice with oral administration of F7 at a dose of 40 mg/kg/d for 3 days but without glycerol injection. (TIF) Click here for additional data file.

Chain of HDAC5 (Q9UQL6 whole entry, species assumed): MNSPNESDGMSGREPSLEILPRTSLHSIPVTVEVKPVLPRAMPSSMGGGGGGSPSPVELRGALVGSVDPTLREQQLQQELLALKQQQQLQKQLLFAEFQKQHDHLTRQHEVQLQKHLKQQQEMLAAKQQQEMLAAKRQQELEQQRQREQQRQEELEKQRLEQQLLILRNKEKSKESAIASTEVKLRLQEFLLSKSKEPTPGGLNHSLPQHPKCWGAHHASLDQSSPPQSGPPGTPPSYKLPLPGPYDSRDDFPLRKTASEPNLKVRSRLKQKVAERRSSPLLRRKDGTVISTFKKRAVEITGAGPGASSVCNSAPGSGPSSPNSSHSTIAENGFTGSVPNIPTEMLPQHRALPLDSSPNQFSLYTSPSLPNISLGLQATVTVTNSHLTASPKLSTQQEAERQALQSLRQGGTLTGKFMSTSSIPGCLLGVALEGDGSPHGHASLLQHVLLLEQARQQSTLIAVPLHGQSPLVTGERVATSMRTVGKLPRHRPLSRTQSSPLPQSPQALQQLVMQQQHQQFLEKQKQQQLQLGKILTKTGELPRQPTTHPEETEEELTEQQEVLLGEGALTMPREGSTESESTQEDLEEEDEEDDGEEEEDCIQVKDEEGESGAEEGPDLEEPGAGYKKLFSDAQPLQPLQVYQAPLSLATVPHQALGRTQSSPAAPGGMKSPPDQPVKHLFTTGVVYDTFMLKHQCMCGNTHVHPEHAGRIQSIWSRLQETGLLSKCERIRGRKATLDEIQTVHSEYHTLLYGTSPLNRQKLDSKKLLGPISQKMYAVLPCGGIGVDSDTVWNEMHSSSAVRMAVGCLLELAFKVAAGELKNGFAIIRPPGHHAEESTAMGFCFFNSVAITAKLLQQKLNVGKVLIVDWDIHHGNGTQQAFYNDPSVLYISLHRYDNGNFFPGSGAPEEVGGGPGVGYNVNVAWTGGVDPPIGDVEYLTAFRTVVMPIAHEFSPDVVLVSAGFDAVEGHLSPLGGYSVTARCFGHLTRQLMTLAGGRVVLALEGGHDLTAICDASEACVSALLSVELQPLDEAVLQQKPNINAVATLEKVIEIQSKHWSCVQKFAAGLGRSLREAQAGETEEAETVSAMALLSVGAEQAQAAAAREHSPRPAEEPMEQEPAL

`Cc1nc(N(C)c2ccc(Oc3ccc(C(=O)NO)cn3)cc2)c2ccccc2n1` [F7, N-hydroxy-6-(4-(methyl(2-methylquinazolin-4-yl)amino)phenoxy)nicotinamide]: the IC50 (commonly the concentration that inhibits the measured activity by half) against HDAC5 is over 10 µM. Also, in the data set with HK-2 cells, the “HDAC6 expression in vitro” value is given as “effectively inhibited” and the “inflammation in HK-2 cells (NF-κB pathway activation)” value was “ameliorated”. Besides, the “organ damage (histological sections of liver, kidney, spleen, heart and lung)” value in data set [1] is “did not exhibited organ damage”.

The record behind these values is publication PMC6804997 (PLoS ONE, 2019).
